Laboratory results: the supplement of paper PMC9912026

Tested on: A375_aEGFR2
Assay: pERK immunofluorescence normalised to no-drug reference (=1); higher = more ERK phosphorylation (less pathway inhibition)
Details: drug treatment time 24 h, EGF time 8 h
Procedure: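 A375 CRISPRa-EGFR (A375_aEGFR2) or HT29 cells were treated with two-drug dose combinations (vemurafenib, LY3009120, cobimetinib) for 24 h, then stimulated with EGF (100 ng/mL) or mock medium for 8 h. pERK (T202/Y204) was measured by immunofluorescence as the cytosolic population average, normalised to an untreated no-drug reference of the block (=1). Averages of 2 technical replicates. A375 in 5% FBS, HT29 in 10% FBS.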

CCCS(=O)(=O)Nc1ccc(F)c(C(=O)c2c[nH]c3ncc(-c4ccc(Cl)cc4)cc23)c1F [Vemurafenib] + O=C(c1ccc(F)c(F)c1Nc1ccc(I)cc1F)N1CC(O)([C@@H]2CCCCN2)C1 [Cobimetinib]
pERK immunofluorescence normalised
Details	EGF 0 ng/mL	EGF 100 ng/mL
drug A concentration 0 µM, drug B concentration 31.62 pM	1.03	1.05
drug A concentration 0 µM, drug B concentration 0.0001 µM	1	1.07
drug A concentration 0 µM, drug B concentration 0.000316228 µM	1	1.02
drug A concentration 0 µM, drug B concentration 0.001 µM	0.917	1.01
drug A concentration 0 µM, drug B concentration 0.00316228 µM	0.732	0.906
drug A concentration 0 µM, drug B concentration 0.01 µM	0.399	0.695
drug A concentration 0 µM, drug B concentration 0.0316228 µM	0.188	0.526
drug A concentration 0 µM, drug B concentration 0.1 µM	0.147	0.468
drug A concentration 0 µM, drug B concentration 0.316228 µM	0.141	0.347
drug A concentration 0 µM, drug B concentration 1 µM	0.137	0.196
drug A concentration 0.000316228 µM, drug B concentration 0 µM	1.01	1.04
drug A concentration 0.000316228 µM, drug B concentration 31.62 pM	1.01	1.03
drug A concentration 0.000316228 µM, drug B concentration 0.0001 µM	1.01	1.02
drug A concentration 0.000316228 µM, drug B concentration 0.000316228 µM	0.984	1.02
drug A concentration 0.000316228 µM, drug B concentration 0.001 µM	0.915	0.936
drug A concentration 0.000316228 µM, drug B concentration 0.00316228 µM	0.687	0.804
drug A concentration 0.000316228 µM, drug B concentration 0.01 µM	0.383	0.605
drug A concentration 0.000316228 µM, drug B concentration 0.0316228 µM	0.175	0.498
drug A concentration 0.000316228 µM, drug B concentration 0.1 µM	0.152	0.425
drug A concentration 0.000316228 µM, drug B concentration 0.316228 µM	0.138	0.289
drug A concentration 0.000316228 µM, drug B concentration 1 µM	0.14	0.179
drug A concentration 0.001 µM, drug B concentration 0 µM	1.01	1.05
drug A concentration 0.001 µM, drug B concentration 31.62 pM	1.02	1.04
drug A concentration 0.001 µM, drug B concentration 0.0001 µM	1.01	1.02
drug A concentration 0.001 µM, drug B concentration 0.000316228 µM	0.958	1.05
drug A concentration 0.001 µM, drug B concentration 0.001 µM	0.857	0.99
drug A concentration 0.001 µM, drug B concentration 0.00316228 µM	0.631	0.816
drug A concentration 0.001 µM, drug B concentration 0.01 µM	0.328	0.621
drug A concentration 0.001 µM, drug B concentration 0.0316228 µM	0.172	0.518
drug A concentration 0.001 µM, drug B concentration 0.1 µM	0.142	0.443
drug A concentration 0.001 µM, drug B concentration 0.316228 µM	0.139	0.3
drug A concentration 0.001 µM, drug B concentration 1 µM	0.137	0.172
drug A concentration 0.00316228 µM, drug B concentration 0 µM	1.02	1.06
drug A concentration 0.00316228 µM, drug B concentration 31.62 pM	0.976	1.05
drug A concentration 0.00316228 µM, drug B concentration 0.0001 µM	0.987	1.06
drug A concentration 0.00316228 µM, drug B concentration 0.000316228 µM	0.943	0.991
drug A concentration 0.00316228 µM, drug B concentration 0.001 µM	0.874	0.935
drug A concentration 0.00316228 µM, drug B concentration 0.00316228 µM	0.623	0.81
drug A concentration 0.00316228 µM, drug B concentration 0.01 µM	0.306	0.625
drug A concentration 0.00316228 µM, drug B concentration 0.0316228 µM	0.164	0.525
drug A concentration 0.00316228 µM, drug B concentration 0.1 µM	0.149	0.435
drug A concentration 0.00316228 µM, drug B concentration 0.316228 µM	0.141	0.285
drug A concentration 0.00316228 µM, drug B concentration 1 µM	0.138	0.166
drug A concentration 0.01 µM, drug B concentration 0 µM	0.986	1.03
drug A concentration 0.01 µM, drug B concentration 31.62 pM	0.927	1.02
drug A concentration 0.01 µM, drug B concentration 0.0001 µM	0.905	0.991
drug A concentration 0.01 µM, drug B concentration 0.000316228 µM	0.875	1.01
drug A concentration 0.01 µM, drug B concentration 0.001 µM	0.814	0.909
drug A concentration 0.01 µM, drug B concentration 0.00316228 µM	0.534	0.765
drug A concentration 0.01 µM, drug B concentration 0.01 µM	0.292	0.613
drug A concentration 0.01 µM, drug B concentration 0.0316228 µM	0.198	0.503
drug A concentration 0.01 µM, drug B concentration 0.1 µM	0.144	0.417
drug A concentration 0.01 µM, drug B concentration 0.316228 µM	0.139	0.29
drug A concentration 0.01 µM, drug B concentration 1 µM	0.138	0.165
drug A concentration 0.0316228 µM, drug B concentration 0 µM	0.881	1
drug A concentration 0.0316228 µM, drug B concentration 31.62 pM	0.842	0.991
drug A concentration 0.0316228 µM, drug B concentration 0.0001 µM	0.795	0.944
drug A concentration 0.0316228 µM, drug B concentration 0.000316228 µM	0.753	0.892
drug A concentration 0.0316228 µM, drug B concentration 0.001 µM	0.666	0.834
drug A concentration 0.0316228 µM, drug B concentration 0.00316228 µM	0.441	0.692
drug A concentration 0.0316228 µM, drug B concentration 0.01 µM	0.228	0.567
drug A concentration 0.0316228 µM, drug B concentration 0.0316228 µM	0.161	0.495
drug A concentration 0.0316228 µM, drug B concentration 0.1 µM	0.145	0.414
drug A concentration 0.0316228 µM, drug B concentration 0.316228 µM	0.14	0.282
drug A concentration 0.0316228 µM, drug B concentration 1 µM	0.138	0.164
drug A concentration 0.1 µM, drug B concentration 0 µM	0.659	0.851
drug A concentration 0.1 µM, drug B concentration 31.62 pM	0.542	0.79
drug A concentration 0.1 µM, drug B concentration 0.0001 µM	0.539	0.787
drug A concentration 0.1 µM, drug B concentration 0.000316228 µM	0.489	0.774
drug A concentration 0.1 µM, drug B concentration 0.001 µM	0.404	0.672
drug A concentration 0.1 µM, drug B concentration 0.00316228 µM	0.285	0.615
drug A concentration 0.1 µM, drug B concentration 0.01 µM	0.186	0.553
drug A concentration 0.1 µM, drug B concentration 0.0316228 µM	0.149	0.525
drug A concentration 0.1 µM, drug B concentration 0.1 µM	0.146	0.407
drug A concentration 0.1 µM, drug B concentration 0.316228 µM	0.14	0.283
drug A concentration 0.1 µM, drug B concentration 1 µM	0.14	0.161
drug A concentration 0.316228 µM, drug B concentration 0 µM	0.362	0.697
drug A concentration 0.316228 µM, drug B concentration 31.62 pM	0.311	0.647
drug A concentration 0.316228 µM, drug B concentration 0.0001 µM	0.28	0.635
drug A concentration 0.316228 µM, drug B concentration 0.000316228 µM	0.264	0.643
drug A concentration 0.316228 µM, drug B concentration 0.001 µM	0.235	0.6
drug A concentration 0.316228 µM, drug B concentration 0.00316228 µM	0.187	0.584
drug A concentration 0.316228 µM, drug B concentration 0.01 µM	0.161	0.557
drug A concentration 0.316228 µM, drug B concentration 0.0316228 µM	0.146	0.502
drug A concentration 0.316228 µM, drug B concentration 0.1 µM	0.142	0.388
drug A concentration 0.316228 µM, drug B concentration 0.316228 µM	0.139	0.27
drug A concentration 0.316228 µM, drug B concentration 1 µM	0.139	0.157
drug A concentration 1 µM, drug B concentration 0 µM	0.211	0.639
drug A concentration 1 µM, drug B concentration 31.62 pM	0.195	0.623
drug A concentration 1 µM, drug B concentration 0.0001 µM	0.192	0.614
drug A concentration 1 µM, drug B concentration 0.000316228 µM	0.189	0.614
drug A concentration 1 µM, drug B concentration 0.001 µM	0.175	0.603
drug A concentration 1 µM, drug B concentration 0.00316228 µM	0.169	0.615
drug A concentration 1 µM, drug B concentration 0.01 µM	0.147	0.571
drug A concentration 1 µM, drug B concentration 0.0316228 µM	0.142	0.494
drug A concentration 1 µM, drug B concentration 0.1 µM	0.141	0.382
drug A concentration 1 µM, drug B concentration 0.316228 µM	0.138	0.245
drug A concentration 1 µM, drug B concentration 1 µM	0.141	0.153
drug A concentration 3.16228 µM, drug B concentration 0 µM	0.171	0.647
drug A concentration 3.16228 µM, drug B concentration 31.62 pM	0.161	0.666
drug A concentration 3.16228 µM, drug B concentration 0.0001 µM	0.172	0.648
drug A concentration 3.16228 µM, drug B concentration 0.000316228 µM	0.158	0.647
drug A concentration 3.16228 µM, drug B concentration 0.001 µM	0.152	0.635
drug A concentration 3.16228 µM, drug B concentration 0.00316228 µM	0.147	0.614
drug A concentration 3.16228 µM, drug B concentration 0.01 µM	0.146	0.532
drug A concentration 3.16228 µM, drug B concentration 0.0316228 µM	0.14	0.464
drug A concentration 3.16228 µM, drug B concentration 0.1 µM	0.139	0.305
drug A concentration 3.16228 µM, drug B concentration 0.316228 µM	0.139	0.179
drug A concentration 3.16228 µM, drug B concentration 1 µM	0.14	0.138
drug A concentration 10 µM, drug B concentration 0 µM	0.154	0.664
drug A concentration 10 µM, drug B concentration 31.62 pM	0.152	0.616
drug A concentration 10 µM, drug B concentration 0.0001 µM	0.148	0.612
drug A concentration 10 µM, drug B concentration 0.000316228 µM	0.149	0.579
drug A concentration 10 µM, drug B concentration 0.001 µM	0.147	0.584
drug A concentration 10 µM, drug B concentration 0.00316228 µM	0.149	0.546
drug A concentration 10 µM, drug B concentration 0.01 µM	0.147	0.476
drug A concentration 10 µM, drug B concentration 0.0316228 µM	0.141	0.36
drug A concentration 10 µM, drug B concentration 0.1 µM	0.14	0.209
drug A concentration 10 µM, drug B concentration 0.316228 µM	0.141	0.146
drug A concentration 10 µM, drug B concentration 1 µM	0.146	0.138
